Source: ChEMBL document CHEMBL1142514, “Improved synthesis of 6-epi-dictyostatin and antitumor efficacy in mice bearing MDA-MB231 human breast cancer xenografts” (2008)

How the values were obtained:
Format in all cases: functional
MDA-MB-231 [1] = assay: Antitumor activity against human MDA-MB-231 cells xenografted in CB17 SCID mouse assessed as two tumor doubling time administered at 20 mg/kg, iv q7d in 3 schedule
MDA-MB-231 [2] = assay: Antitumor activity against human MDA-MB-231 cells xenografted in CB17 SCID mouse assessed as ratio of median tumor volume for drug to control administered at 20 mg/kg, iv q7d in 3 schedule after 14 days
MDA-MB-231 [3] = assay: Antitumor activity against human MDA-MB-231 cells xenografted in CB17 SCID mouse assessed as one tumor doubling time administered at 20 mg/kg, iv q7d in 3 schedule
MDA-MB-231 [4] = assay: Antitumor activity against human MDA-MB-231 cells xenografted in CB17 SCID mouse assessed as ratio of median tumor volume for drug to vehicle administered at 20 mg/kg, iv q7d in 3 schedule after 17 days

CC(=O)O[C@H]1C(=O)[C@@]2(C)[C@H]([C@H](OC(=O)c3ccccc3)[C@]3(O)C[C@H](OC(=O)[C@H](O)[C@@H](NC(=O)c4ccccc4)c4ccccc4)C(C)=C1C3(C)C)[C@]1(OC(C)=O)CO[C@@H]1C[C@@H]2O [PACLITAXEL]
Activity (MDA-MB-231 [1]): 19 days
T/C (MDA-MB-231 [2]): 33%
Activity (MDA-MB-231 [3]): 7.9 days
Activity (MDA-MB-231 [4]): 31%
